Experimental data reported in publication PMC6261661 (ACS chemical neuroscience, 2018).
Where “and” joins values, the source holds several entries; their conditions need not be identical. Equal entries are not always repeated. Where two headings read alike, the source gives them in different places. Square brackets hold non-standard residues; d marks the D form. Peptide text beside a SMILES is read from it. Bip = N[C@@H](Cc1ccc(-c2ccccc2)cc1)C(=O)O; dBip = N[C@H](Cc1ccc(-c2ccccc2)cc1)C(=O)O; dPhe(4-I) = N[C@H](Cc1ccc(I)cc1)C(=O)O; 1Nal = N[C@@H](Cc1cccc2ccccc12)C(=O)O; 2Nal = N[C@@H](Cc1ccc2ccccc2c1)C(=O)O; d2Nal = N[C@H](Cc1ccc2ccccc2c1)C(=O)O; 3Pal = N[C@@H](Cc1cccnc1)C(=O)O; 4Pal = N[C@@H](Cc1ccncc1)C(=O)O; Tic = O=C(O)[C@@H]1Cc2ccccc2CN1

Legend:
mMC1R [1] = molecular target: T1, mMC1R (Mus musculus, UniProt Q01727); details: read-out: mMC1R EC50, reference peptide from the literature, cited from earlier work
T1 sequence (Q01727 whole entry): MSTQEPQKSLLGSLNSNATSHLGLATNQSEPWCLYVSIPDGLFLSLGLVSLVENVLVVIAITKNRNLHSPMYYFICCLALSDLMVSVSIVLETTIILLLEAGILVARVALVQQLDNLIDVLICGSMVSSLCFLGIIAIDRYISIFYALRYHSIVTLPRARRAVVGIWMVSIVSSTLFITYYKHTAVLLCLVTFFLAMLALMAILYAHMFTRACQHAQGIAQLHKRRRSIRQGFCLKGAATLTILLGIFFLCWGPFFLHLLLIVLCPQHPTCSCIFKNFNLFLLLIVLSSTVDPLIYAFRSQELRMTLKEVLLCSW

mMC3R [2] = molecular target: T2, mMC3R (Mus musculus, UniProt P33033); details: cited from earlier work; for EC50: read-out: mMC3R EC50, reference peptide from the literature
T2 sequence (P33033 whole entry): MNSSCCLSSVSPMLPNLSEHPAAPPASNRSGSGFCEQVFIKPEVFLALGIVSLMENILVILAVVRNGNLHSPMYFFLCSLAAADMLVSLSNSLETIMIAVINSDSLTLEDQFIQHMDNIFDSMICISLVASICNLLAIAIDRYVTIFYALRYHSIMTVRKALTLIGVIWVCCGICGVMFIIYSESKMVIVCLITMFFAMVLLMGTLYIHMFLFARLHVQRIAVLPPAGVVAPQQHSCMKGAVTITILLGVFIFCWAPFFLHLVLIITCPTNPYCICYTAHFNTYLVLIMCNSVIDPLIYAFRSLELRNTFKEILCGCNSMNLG

mMC4R [3] = molecular target: T3, mMC4R (Mus musculus, UniProt P56450); details: read-out: mMC4R EC50, reference peptide from the literature, cited from earlier work
T3 sequence (P56450 whole entry): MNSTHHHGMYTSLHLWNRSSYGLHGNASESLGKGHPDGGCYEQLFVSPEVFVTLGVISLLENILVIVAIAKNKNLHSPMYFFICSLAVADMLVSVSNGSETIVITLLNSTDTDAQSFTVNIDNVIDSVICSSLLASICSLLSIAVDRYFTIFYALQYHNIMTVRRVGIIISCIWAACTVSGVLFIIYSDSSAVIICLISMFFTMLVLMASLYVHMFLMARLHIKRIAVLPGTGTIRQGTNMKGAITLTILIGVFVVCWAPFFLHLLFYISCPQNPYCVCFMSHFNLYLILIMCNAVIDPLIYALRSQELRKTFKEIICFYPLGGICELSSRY

mMC5R [4] = molecular target: T4, mMC5R (Mus musculus, UniProt P41149); details: read-out: mMC5R EC50, reference peptide from the literature, cited from earlier work
T4 sequence (P41149 whole entry): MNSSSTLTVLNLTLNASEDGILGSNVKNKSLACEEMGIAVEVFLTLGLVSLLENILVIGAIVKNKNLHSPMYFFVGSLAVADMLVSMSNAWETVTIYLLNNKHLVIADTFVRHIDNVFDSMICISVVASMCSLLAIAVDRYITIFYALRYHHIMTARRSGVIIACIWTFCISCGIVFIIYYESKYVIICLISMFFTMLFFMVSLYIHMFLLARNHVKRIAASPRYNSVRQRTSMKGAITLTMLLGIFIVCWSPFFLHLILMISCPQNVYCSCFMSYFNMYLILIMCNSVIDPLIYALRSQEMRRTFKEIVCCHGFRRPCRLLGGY

mMC5R [5] = molecular target: T4, mMC5R; experiment: CRE/β-galactosidase reporter gene bioassay, agonist activity at mMC5R; assay type: cell-based
mMC1R [6] = molecular target: T1, mMC1R; experiment: CRE/β-galactosidase reporter gene bioassay, agonist activity at mMC1R; assay type: cell-based
mMC4R [7] = molecular target: T3, mMC4R; experiment: CRE/β-galactosidase reporter gene bioassay, agonist activity at mMC4R; assay type: cell-based; details: ligand at 100 μM, compared to maximal response generated by α-MSH
mMC3R [8] = molecular target: T2, mMC3R; experiment: Antagonist Schild analysis against agonist MTII at mMC3R; assay type: cell-based
mMC4R [9] = molecular target: T3, mMC4R; experiment: Antagonist Schild analysis against agonist MTII at mMC4R; assay type: cell-based
male and female mice = details: central administration, ref [37]; cited from earlier work
[10] = fold difference in EC50 vs peptide 1, negative prefix = more potent than 1
[11] = Ant = antagonist, SA = some stimulatory activity at 100 µM

Compound | EC50 (mMC1R [1]; ref [31]) [nM] | EC50 (mMC3R [2]; ref [31]) [nM] | EC50 (mMC4R [3]; ref [31]) | EC50 (mMC5R [4]; ref [31]) [nM] | further results
Ac-His-DPhe-Arg-3Bal-NH2 [Peptide 44] | 80 ± 9 | 3700 ± 1400 | 140 ± 20 nM | 48 ± 4 | –
Ac-[3Pal][dF]RW-NH2 [Peptide 50] | – | – | – | – | EC50 (mMC1R [1]; ref [33]): 1200 ± 200 nM; mMC3R pharmacology in words (mMC3R [2]; ref [33]): only slight agonist activity; EC50 (mMC4R [3]; ref [33]): 890 ± 100 nM; EC50 (mMC5R [4]; ref [33]): 400 ± 100 nM
Ac-His-DNal(1’)-Arg-Trp-NH2 [Peptide 46] | – | – | – | – | EC50 (mMC1R [1]; ref [32]): 360 ± 60 nM; EC50 (mMC3R [2]; ref [32]): 4100 ± 100 nM; EC50 (mMC4R [3]; ref [32]): 300 ± 70 nM; EC50 (mMC5R [4]; ref [32]): 51 ± 4 nM
CC(=O)N[C@@H](Cc1c[nH]cn1)C(=O)N[C@H](Cc1ccccc1)C(=O)N[C@@H](CCCNC(=N)N)C(=O)N[C@@H](Cc1ccc2ccccc2c1)C(N)=O [Peptide 39, Ac-His-DPhe-Arg-Nal(2’)-NH2] (Ac-H[dF]R[2Nal]-NH2) | 17.9 ± 6 | 740 ± 160 | 16 nM and 15.8 nM | 4.9 ± 1.5 | selectivity between the mMC1R and the mMC5R (mMC5R [5]; monosubstituted reference peptides, from literature EC50 values of Table 3): ≤ 5 fold
Ac-H[dF]R[Bip]-NH2 [Peptide 42] | 52 ± 10 | 13000 ± 800 | 2700 ± 500 nM | 100 ± 20 | –
Ac-H[dF]R[Tic]-NH2 [Peptide 41] | 43 ± 13 | 23000 ± 2000 | 8500 ± 900 nM | 700 ± 100 | –
Ac-[4Pal][dF]RW-NH2 [Peptide 51] | – | – | – | – | EC50 (mMC1R [1]; ref [33]): 180 ± 80 nM; EC50 (mMC3R [2]; ref [33]): 2300 ± 800 nM; EC50 (mMC4R [3]; ref [33]): 130 ± 30 nM; EC50 (mMC5R [4]; ref [33]): 93 ± 22 nM
Ac-His-DPhe-Arg-Phe-NH2 (Ac-H[dF]RF-NH2; SMILES CC(=O)N[C@@H](Cc1c[nH]cn1)C(=O)N[C@H](Cc1ccccc1)C(=O)N[C@@H](CCCNC(=N)N)C(=O)N[C@@H](Cc1ccccc1)C(N)=O) [Peptide 37] | 530 ± 240 | 27000 ± 7000 | 7800 ± 2500 nM | 890 ± 110 | –
Ac-H[dF]R[d2Nal]-NH2 [Peptide 40] | 130 ± 30 | 1600 ± 600 | 46.2 ± 7.9 nM | 12.1 ± 3.3 | –
CC(=O)N[C@@H](Cc1c[nH]c2ccccc12)C(=O)N[C@H](Cc1ccc(I)cc1)C(=O)N[C@@H](CCCNC(=N)N)C(=O)N[C@@H](Cc1c[nH]c2ccccc12)C(N)=O [Peptide 13, Ac-Trp-(pI)DPhe-Arg-Trp-NH2] (Ac-W[dPhe(4-I)]RW-NH2) | – | – | – | – | mMC1R Fold Diff (mMC1R [6]; [10]): 30; EC50 (mMC1R [6]; mMC1R EC50, agonist, HEK-293 cells stably expressing receptor, ±SEM): 4200 ± 1200 nM; mMC4R relative percentage of stimulation at 100 μM (mMC4R [7]): 40%; EC50 (mMC5R [5]): 10000 ± 3000 nM; mMC5R Fold Diff. (mMC5R [5]; [10]): 1905; mMC5R fold less potent than peptide 1 (mMC5R [5]; less potent than 1): 1900 fold; Kb (mMC3R [8]): 63.1 nM; mMC3R pharmacology class printed in Fold Diff column (Ant, SA) (mMC3R [8]; [11]): Ant; Kb (mMC4R [9]): 5.01 nM; mMC4R pharmacology class printed in Fold Diff. column (Ant, SA) (mMC4R [9]; [11]): SA Ant; effect on energy homeostasis in vivo (male and female mice): different effects on energy homeostasis in male mice compared to female mice
Ac-H[dF]R[1Nal]-NH2 [Peptide 38] | 730 ± 320 | 3500 ± 1300 | 260 ± 30 nM | 33 ± 4 | –
Ac-H[dF]R[dBip]-NH2 [Peptide 43] | 310 ± 70 | 16000 ± 5000 | 1500 ± 400 nM | 150 ± 10 | –
Ac-Trp-DPhe-Arg-Trp-NH2 (Ac-W[dF]RW-NH2; SMILES CC(=O)N[C@@H](Cc1c[nH]c2ccccc12)C(=O)N[C@H](Cc1ccccc1)C(=O)N[C@@H](CCCNC(=N)N)C(=O)N[C@@H](Cc1c[nH]c2ccccc12)C(N)=O) [Peptide 49] | – | – | – | – | EC50 (mMC1R [1]; ref [33]): 5400 ± 1800 nM; EC50 (mMC3R [2]; ref [33]): 10000 ± 2000 nM; EC50 (mMC4R [3]; ref [33]): 530 ± 150 nM; EC50 (mMC5R [4]; ref [33]): 510 ± 100 nM
